Format in all cases: cell-based
The test system of experiment [1] is microfilariae of Dirofilaria immitis. Kind of experiment: Dirofilaria immitis, Microfilaria (DiMf) In Vitro Assay. To be noted: for minimal effective concentration: Dirofilaria immitis, 72 h, read-out: DiMf MED, Minimum Effective Dose, D. immitis microfilariae motility, in vitro.
In experiment [2] the test system is third stage larvae of Haemonchus contortus. Kind of experiment: Haemonchus contortus, Larvae Stage 3 (HcL3) In Vitro Assay. To be noted: for minimal effective concentration: Haemonchus contortus, 96 h.
Another experiment has as its system D. immitis L4 larvae. Kind of experiment: Dirofilaria immitis, L4 Stage (DiL4) In Vitro Assay. To be noted: for minimal effective concentration: Dirofilaria immitis, 72 h, read-out: DiL4 MED, Minimum Effective Dose, D. immitis L4 larvae motility, in vitro; for DiMf/DiL4: larval stage selectivity, ratio of DiMf MED to DiL4 MED.
The mark [3] stands for this setting: read-out: HcL3 MED, Haemonchus contortus third stage larvae in vitro, class mark appended to the Ex # in Table 3.
Setting [4] is: read-out: HcL3 MED, Minimum Effective Dose, H. contortus third stage larvae, approximately 96 hours.
Setting [5] is: read-out: HcL3 MED, approximately 96 hours incubation, multiple-resistant field isolate.
[6] abbreviates: read-out: HcL3 MED (symbol after Ex#), approximately 96 hours incubation, multiple-resistant field isolate.

Where two headings read alike, the source gives them in different places. Marks after values point to notes of the source that are not given here.

Consider `Cc1ncccc1Cc1ccc(C[C@@H]2OC(=O)[C@H](CC(C)C)N(C)C(=O)[C@@H](C)OC(=O)[C@@H](CC(C)C)N(C)C(=O)[C@@H](Cc3ccc(Cc4cccnc4C)cc3)OC(=O)[C@@H](CC(C)C)N(C)C(=O)[C@@H](C)OC(=O)[C@H](CC(C)C)N(C)C2=O)cc1` [Example 3-273, (3S,6R,9R,12R,15R,18R,21S,24S)-3,9,15,21-tetraisobutyl-4,6,10,16,18,22-hexamethyl-12,24-bis[[4-[(2-methyl-3-pyridyl)methyl]phenyl]methyl]-1,7,13,19-tetraoxa-4,10,16,22-tetrazacyclotetracosane-2,5,8,11,14,17,20,23-octaone], for which the minimal effective concentration in experiment [1] is 0.002 µM; in experiment [2] (setting [3]), under 1 µM; in experiment [2] (setting [4]), 1 µM; in experiment [2] (setting [5]), at most 1 µM; in the experiment with D. immitis L4 larvae, 0.0003 µM. The DiMf/DiL4 with D. immitis L4 larvae came to 6.7.
For `COc1ccc(Cc2ccc(C[C@H]3OC(=O)[C@H](CC(C)C)N(C)C(=O)[C@@H](C)OC(=O)[C@H](CC(C)C)N(C)C(=O)[C@@H](Cc4ccccc4)OC(=O)[C@H](CC(C)C)N(C)C(=O)[C@@H](C)OC(=O)[C@H](CC(C)C)N(C)C3=O)cc2)c(C)n1` [Example 4-118, (3S,6R,9S,12R,15S,18R,21S,24R)-6-benzyl-3,9,15,21-tetraisobutyl-18-(4-((6-methoxy-2-methylpyridin-3-yl)methyl)benzyl)-4,10,12,16,22,24-hexamethyl-1,7,13,19-tetraoxa-4,10,16,22-tetraazacyclotetracosan-2,5,8,11,14,17,20,23-octaone], the minimal effective concentration in experiment [1] was 0.001 µM; in experiment [2] (setting [6]) it was under 1 µM; in experiment [2] (setting [4]) it was 0.3 µM; in experiment [2] (setting [5]) it was at most 1 µM; with D. immitis L4 larvae, 0.0001 µM. Also, the DiMf/DiL4 in the experiment with D. immitis L4 larvae is recorded as 10.
With `COC(c1ccc(C[C@H]2OC(=O)[C@H](CC(C)C)N(C)C(=O)[C@@H](C)OC(=O)[C@H](CC(C)C)N(C)C(=O)[C@@H](Cc3ccccc3)OC(=O)[C@H](CC(C)C)N(C)C(=O)[C@@H](C)OC(=O)[C@H](CC(C)C)N(C)C2=O)cc1)c1ccc(F)c(F)c1` (stereo partly drawn) [Example 2-37, (3S,6R,9S,12R,15S,18R,21S,24R)-6-benzyl-18-(4-((3,4-difluorophenyl)(methoxy)methyl)benzyl)-3,9,15,21-tetraisobutyl-4,10,12,16,22,24-hexamethyl-1,7,13,19-tetraoxa-4,10,16,22-tetraazacyclotetracosan-2,5,8,11,14,17,20,23-octaone], the minimal effective concentration in experiment [1] is 0.02 µM; in experiment [2] (setting [6]), 1 to 3.3 µM; in experiment [2] (setting [4]), 3.3 µM; with D. immitis L4 larvae it was 0.001 µM. In addition, the DiMf/DiL4 in the experiment on D. immitis L4 larvae is reported as 20.
As for `COc1cccnc1Cc1ccc(C[C@H]2OC(=O)[C@H](CC(C)C)N(C)C(=O)[C@@H](C)OC(=O)[C@H](CC(C)C)N(C)C(=O)[C@@H](Cc3ccc(Cc4ncccc4OC)cc3)OC(=O)[C@H](CC(C)C)N(C)C(=O)[C@@H](C)OC(=O)[C@H](CC(C)C)N(C)C2=O)cc1` [Example 3-215], the “DiMf MED” value in experiment [1] (Minimum Effective Dose, D. immitis microfilariae motility, in vitro) stood at 0.7 nM. Besides, the “HcL3 MED” value in experiment [2] (Haemonchus contortus third stage larvae in vitro, class mark appended to the Ex # in Table 3) is 3-215* (Examples with an asterisk (*) have HcL3 MED values≤1 μM); in experiment [2] (Minimum Effective Dose, H. contortus third stage larvae, approximately 96 hours), 1 µM. Moreover, in the experiment on D. immitis L4 larvae (Minimum Effective Dose, D. immitis L4 larvae motility, in vitro), the “DiL4 MED” value was under 0.2 nM. In addition, in the experiment with D. immitis L4 larvae, the DiMf/DiL4 is over 3.5.
For `CC(C)C[C@H]1C(=O)O[C@H](Cc2ccc(Cc3ccc(C(F)F)nc3)cc2)C(=O)N(C)[C@@H](CC(C)C)C(=O)O[C@H](C)C(=O)N(C)[C@@H](CC(C)C)C(=O)O[C@H](Cc2ccc(Cc3ccc(C(F)F)nc3)cc2)C(=O)N(C)[C@@H](CC(C)C)C(=O)O[C@H](C)C(=O)N1C` [Example 3-287, (3S,6R,9S,12R,15S,18R,21S,24R)-6,18-bis(4-((6-(difluoromethyl)pyridin-3-yl)methyl)benzyl)-3,9,15,21-tetraisobutyl-4,10,12,16,22,24-hexamethyl-1,7,13,19-tetraoxa-4,10,16,22-tetraazacyclotetracosan-2,5,8,11,14,17,20,23-octaone], the minimal effective concentration in experiment [1] is 0.05 µM; in experiment [2] (setting [4]) it was over 10 µM; in the experiment with D. immitis L4 larvae, 0.0005 µM. Further, in the experiment on D. immitis L4 larvae, the DiMf/DiL4 is on record as 100.
For `COc1ccccc1Cc1ccc(C[C@H]2OC(=O)[C@H](CC(C)C)N(C)C(=O)[C@@H](C)OC(=O)[C@H](CC(C)C)N(C)C(=O)[C@@H](Cc3ccc(Cc4ccccc4OC)cc3)OC(=O)[C@H](CC(C)C)N(C)C(=O)[C@@H](C)OC(=O)[C@H](CC(C)C)N(C)C2=O)cc1` [Example 1-11, (3S,6R,9S,12R,15S,18R,21S,24R)-3,9,15,21-tetraisobutyl-6,18-bis(4-(2-methoxybenzyl)benzyl)-4,10,12,16,22,24-hexamethyl-1,7,13,19-tetraoxa-4,10,16,22-tetraazacyclotetracosan-2,5,8,11,14,17,20,23-octaone] the same measures were 0.3 µM, over 10 µM, 0.001 µM and 300.
The corresponding values for `COc1ncccc1C(C)(F)c1ccc(C[C@H]2OC(=O)[C@H](CC(C)C)N(C)C(=O)[C@@H](C)OC(=O)[C@H](CC(C)C)N(C)C(=O)[C@@H](Cc3ccc(C(C)(F)c4cccnc4OC)cc3)OC(=O)[C@H](CC(C)C)N(C)C(=O)[C@@H](C)OC(=O)[C@H](CC(C)C)N(C)C2=O)cc1` (stereo partly drawn) [Example 3-220, (3S,6R,9S,12R,15S,18R,21S,24R)-6,18-bis(4-(1-fluoro-1-(2-methoxypyridin-3-yl)ethyl)benzyl)-3,9,15,21-tetraisobutyl-4,10,12,16,22,24-hexamethyl-1,7,13,19-tetraoxa-4,10,16,22-tetraazacyclotetracosan-2,5,8,11,14,17,20,23-octaone] are 0.005 µM, over 100 µM, 0.0007 µM and 7.1.
As to `COc1ccsc1Cc1ccc(C[C@H]2OC(=O)[C@H](CC(C)C)N(C)C(=O)[C@@H](C)OC(=O)[C@H](CC(C)C)N(C)C(=O)[C@@H](Cc3ccccc3)OC(=O)[C@H](CC(C)C)N(C)C(=O)[C@@H](C)OC(=O)[C@H](CC(C)C)N(C)C2=O)cc1` [Example 4-105, (3S,6R,9S,12R,15S,18R,21S,24R)-6-benzyl-3,9,15,21-tetraisobutyl-18-(4-((3-methoxythiophen-2-yl)methyl)benzyl)-4,10,12,16,22,24-hexamethyl-1,7,13,19-tetraoxa-4,10,16,22-tetraazacyclotetracosan-2,5,8,11,14,17,20,23-octaone], the minimal effective concentration in experiment [1] was 0.005 µM; in experiment [2] (setting [6]), under 1 µM; in experiment [2] (setting [4]) it was 0.3 µM; in experiment [2] (setting [5]), at most 1 µM; in the experiment with D. immitis L4 larvae it was 0.0002 µM. In the experiment with D. immitis L4 larvae, the DiMf/DiL4 was 25.
As to `CC(C)C[C@H]1C(=O)O[C@H](Cc2ccc(Cc3ccco3)cc2)C(=O)N(C)[C@@H](CC(C)C)C(=O)O[C@H](C)C(=O)N(C)[C@@H](CC(C)C)C(=O)O[C@H](Cc2ccc(Cc3ccco3)cc2)C(=O)N(C)[C@@H](CC(C)C)C(=O)O[C@H](C)C(=O)N1C` [Example 3-8, (3S,6R,9S,12R,15S,18R,21S,24R)-6,18-bis(4-(furan-2-ylmethyl)benzyl)-3,9,15,21-tetraisobutyl-4,10,12,16,22,24-hexamethyl-1,7,13,19-tetraoxa-4,10,16,22-tetraazacyclotetracosan-2,5,8,11,14,17,20,23-octaone], the minimal effective concentration in experiment [1] was 0.01 µM; in experiment [2] (setting [3]), under 1 µM; in experiment [2] (setting [4]), 1 µM; in experiment [2] (setting [5]) it was at most 1 µM; with D. immitis L4 larvae, 0.0003 µM. In addition, the DiMf/DiL4 with D. immitis L4 larvae is 33.3.
Regarding `CC(C)C[C@H]1C(=O)O[C@H](Cc2ccc(Cc3ncco3)cc2)C(=O)N(C)[C@@H](CC(C)C)C(=O)O[C@H](C)C(=O)N(C)[C@@H](CC(C)C)C(=O)O[C@H](Cc2ccccc2)C(=O)N(C)[C@@H](CC(C)C)C(=O)O[C@H](C)C(=O)N1C` [Example 4-30, (3S,6R,9S,12R,15S,18R,21S,24R)-6-benzyl-3,9,15,21-tetraisobutyl-4,10,12,16,22,24-hexamethyl-18-(4-(oxazol-2-ylmethyl)benzyl)-1,7,13,19-tetraoxa-4,10,16,22-tetraazacyclotetracosan-2,5,8,11,14,17,20,23-octaone], the minimal effective concentration in experiment [1] is 0.001 µM; in experiment [2] (setting [6]), under 1 µM; in experiment [2] (setting [4]), 1 µM; in experiment [2] (setting [5]), at most 1 µM; with D. immitis L4 larvae, 0.001 µM. Further, in the experiment on D. immitis L4 larvae, the DiMf/DiL4 is given as 1.
As to `COc1ncccc1C(C)c1ccc(C[C@H]2OC(=O)[C@H](CC(C)C)N(C)C(=O)[C@@H](C)OC(=O)[C@H](CC(C)C)N(C)C(=O)[C@@H](Cc3ccc(C(C)c4cccnc4OC)cc3)OC(=O)[C@H](CC(C)C)N(C)C(=O)[C@@H](C)OC(=O)[C@H](CC(C)C)N(C)C2=O)cc1` (stereo partly drawn) [Example 3-261, (3S,6R,9S,12R,15S,18R,21S,24R)-3,9,15,21-tetraisobutyl-6,18-bis(4-(1-(2-methoxypyridin-3-yl)ethyl)benzyl)-4,10,12,16,22,24-hexamethyl-1,7,13,19-tetraoxa-4,10,16,22-tetraazacyclotetracosan-2,5,8,11,14,17,20,23-octaone], the minimal effective concentration in experiment [1] was 0.03 µM; in experiment [2] (setting [4]), over 100 µM; in the experiment with D. immitis L4 larvae, under 0.0001 µM. Also, the DiMf/DiL4 with D. immitis L4 larvae is listed as over 300.

Values taken from US11771738B2 (Zoetis Services LLC, priority 2018, dated 2023).
